SMILES strings stand for the structures. Several values for one entry are separate records, joined by “and”; a condition that tells them apart may be missing. Equal entries are not always repeated. Where two headings read alike, the source gives them in different places. Where only a bound is given, the exact number is not on record here.

Series [1] in a line: in vitro. As to conditions: hamster.
The subject of series [2] is vaccinia virus (modified vaccinia virus Ankara; MVA). Nature of the series: microbe, parasite or virus in culture. It counts as cell-based.
The subject of series [3] is Vaccinia virus (MVA strain). The class given is cell-based.
Series [4] is described as follows: in vitro. As to conditions: hamster, BHK-21 cells, no virus, 2 days.
The mark [5] stands for this setting: CC50, Average of Tests 1-2 (Table 1).
[6] abbreviates: CC50, Average, Tests 1-3 (Table 1A).
[7] abbreviates: CC50, Test 2, uninfected BHK-21 cells, 3 days.
The mark [8] stands for this setting: CC50, Test 3, uninfected BHK-21 cells, 3 days.

As for `Nc1ccn(C[C@@H](CO)OCP(=O)(O)O)c(=O)n1` [Cidofovir], the CC50 was over 100 µM in the series “in vitro [1]” (setting [5]); over 73 µM in “in vitro [1]” (setting [6]); over 100 µM in the series “in vitro [1]” (CC50, Test 1, uninfected BHK-21 cells, 3 days); over 100 µM in “in vitro [1]” (setting [7]); 73 µM in “in vitro [1]” (setting [8]). The EC50 is 2.6 µM and 7.2 µM in series [2]; 4.9 µM in series [2] (Orthopoxvirus vaccinia).
For `CCC(CC)COC(=O)[C@H](C)N[P@](=O)(OC[C@H]1O[C@@](C#N)(c2ccc3c(N)ncnn23)[C@H](O)[C@@H]1O)Oc1ccccc1` [Compound of Formula Ia, (S)-2-ethylbutyl 2-(((S)-(((2R,3S,4R,5R)-5-(4-aminopyrrolo[2,1-f][1,2,4]triazin-7-yl)-5-cyano-3,4-dihydroxytetrahydrofuran-2-yl)methoxy)(phenoxy)phosphoryl)amino)propanoate], the EC50 in series [3] (read-out: Average EC50 ± SD) was 0.773 ± 0.131 µM; in series [3] (read-out: EC50), 0.726 µM; in series [2] it was 2.3 µM and 0.55 µM; in series [2] (Orthopoxvirus vaccinia), 1.43 µM. The CC50 is 12.8 µM in the series “in vitro [1]” (setting [5]); over 2.5 µM in “in vitro [1]” (setting [6]); 2.5 µM in “in vitro [1]” (setting [7]); over 50 µM in “in vitro [1]” (setting [8]); 26.1 µM in the series “in vitro [4]” (CC50, n=3); 28.8 ± 11.5 µM in the series “in vitro [4]” (CC50 ± SD, n=4).

Source of the values: patent US20240207291A1, “METHODS FOR TREATING POXVIRUS INFECTIONS” (priority 2022, published 2024).
